Reference: publication PMC9179341, “Design of New Potent and Selective Thiophene-Based KV1.3 Inhibitors and Their Potential for Anticancer Activity” (Cancers, 2022)

Columns and labels:
Format in all cases: cell-based
KV2.1 = molecular target: T1, KV2.1 (Homo sapiens, UniProt Q14721); experiment: Selectivity, HiClamp Xenopus laevis heterologous expression system, KV2.1
T1 sequence (Q14721 1-858): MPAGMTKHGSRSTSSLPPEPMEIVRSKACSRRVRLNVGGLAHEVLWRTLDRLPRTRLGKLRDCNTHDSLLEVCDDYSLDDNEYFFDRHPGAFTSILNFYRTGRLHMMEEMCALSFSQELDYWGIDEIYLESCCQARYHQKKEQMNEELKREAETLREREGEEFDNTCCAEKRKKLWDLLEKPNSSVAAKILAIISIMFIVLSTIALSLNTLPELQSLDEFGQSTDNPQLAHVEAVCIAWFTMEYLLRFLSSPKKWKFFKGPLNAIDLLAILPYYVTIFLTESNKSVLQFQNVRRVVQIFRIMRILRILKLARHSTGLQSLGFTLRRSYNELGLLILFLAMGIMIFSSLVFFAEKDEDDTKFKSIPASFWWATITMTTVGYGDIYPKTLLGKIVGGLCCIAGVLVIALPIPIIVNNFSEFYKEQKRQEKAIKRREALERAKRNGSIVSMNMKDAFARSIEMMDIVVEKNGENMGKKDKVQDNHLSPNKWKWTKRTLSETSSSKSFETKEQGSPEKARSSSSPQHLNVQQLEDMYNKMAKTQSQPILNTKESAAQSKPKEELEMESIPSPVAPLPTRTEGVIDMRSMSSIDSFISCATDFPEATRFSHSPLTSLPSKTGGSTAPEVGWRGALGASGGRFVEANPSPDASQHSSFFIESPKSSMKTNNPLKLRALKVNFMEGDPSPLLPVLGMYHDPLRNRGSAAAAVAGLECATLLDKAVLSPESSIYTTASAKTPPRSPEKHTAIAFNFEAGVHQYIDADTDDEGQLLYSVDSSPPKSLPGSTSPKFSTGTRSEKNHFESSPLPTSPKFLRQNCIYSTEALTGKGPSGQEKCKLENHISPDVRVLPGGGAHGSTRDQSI
Protocol: (§1) Ion channels (Kv1.x, Kv2.1, Kv4.2, Kv10.1) were expressed in Xenopus laevis oocytes by linearization of the plasmids and subsequent in vitro transcription using a commercial T7 or SP6 mMESSAGE mMACHINE transcription kit (Ambion, Carlsbad, California, USA). Defolliculated Xenopus oocytes were then injected with 20–50 nL of the cRNA at a concentration of 1 ng/nL using a micro-injector (Drummond Scientific1, Broomall, PA, USA). The oocytes were incubated in a solution containing (in mM): NaCl, 96; KCl, 2; CaCl2, 1.8; MgCl2, 2 and HEPES, 5 (pH 7.5), supplemented with 50 mg/L gentamycin sulfate and 90 mg/L theophylline. After ex vivo translation, the ion channels were correctly inserted in the cell membrane of the oocytes.
(§2) Two-electrode voltage-clamp recordings were performed at room temperature (18–22 °C) using a Geneclamp 500 amplifier (Molecular Devices, San Jose, CA, USA) and pClamp data acquisition (Axon Instruments, Union City, CA, USA) and using an integrated digital TEVC amplifier controlled by HiClamp, an automated Voltage-Clamp Screening System (Multi Channel Systems MCS GmbH, Reutlingen, Germany). Whole-cell currents from oocytes were recorded 1–4 days after injection. The bath solution composition was ND96 (in mM): NaCl, 96; KCl, 2; CaCl2, 1.8; MgCl2, 2 and HEPES, 5 (pH 7.5). Voltage and current electrodes were filled with a 3 M solution of KCl in H2O. […]
(§3) For the electrophysiological analysis of the compounds, a number of protocols were applied from a holding potential of −90 mV. […] The concentration dependency of all compounds was assessed by measuring the current inhibition in the presence of increasing compound concentrations. […]
(§4) All electrophysiological data (Figure S1) are presented as means ± S.E.M of n ≥ three independent experiments unless otherwise indicated. All data were analyzed using pClamp Clampfit 10.4 (Molecular Devices, Downingtown, PA, USA), OriginPro 9 (Originlab, Northampton, MA, USA), GraphPad Prism 8 software (GraphPad Software, Inc., San Diego, CA, USA) and DataMining (Multi Channel Systems MCS GmbH, Reutlingen, Germany). […]

KV4.2 = KV4.2 (Homo sapiens, UniProt Q9NZV8); experiment: Selectivity, HiClamp Xenopus laevis heterologous expression system, KV4.2; settings: oocytes, NA = no significant inhibition, no IC50 determined
Protocol: as §1, with “After ex vivo translation, the ion channels were correctly inserted in the cell membrane of the oocytes.” left out
as §2, with “injection.” for “injection. The bath solution composition was ND96 (in mM): NaCl, 96; KCl, 2; CaCl2, 1.8; MgCl2, 2 and HEPES, 5 (pH 7.5). Voltage and current electrodes were filled with a 3 M solution of KCl in H2O.”
as §3

KV1.4 = KV1.4 (Homo sapiens, UniProt P22459); experiment: Selectivity, HiClamp Xenopus laevis heterologous expression system, KV1.4
Protocol: as §1, §2, §3, §4

KV10.1 = KV10.1 (Homo sapiens, UniProt O95259); experiment: Selectivity, HiClamp Xenopus laevis heterologous expression system, KV10.1; settings: at a concentration of the compound's IC50 value for KV1.3
Protocol: as §1, with “After ex vivo translation, the ion channels were correctly inserted in the cell membrane of the oocytes.” left out
as §2, with “injection.” for “injection. The bath solution composition was ND96 (in mM): NaCl, 96; KCl, 2; CaCl2, 1.8; MgCl2, 2 and HEPES, 5 (pH 7.5). Voltage and current electrodes were filled with a 3 M solution of KCl in H2O.”
as §3

[1] = HiClamp, oocytes, NA = no significant inhibition, no IC50 determined
[2] = at a concentration of the compound's IC50 value for KV1.3

Chain of KV1.4 (P22459 whole entry): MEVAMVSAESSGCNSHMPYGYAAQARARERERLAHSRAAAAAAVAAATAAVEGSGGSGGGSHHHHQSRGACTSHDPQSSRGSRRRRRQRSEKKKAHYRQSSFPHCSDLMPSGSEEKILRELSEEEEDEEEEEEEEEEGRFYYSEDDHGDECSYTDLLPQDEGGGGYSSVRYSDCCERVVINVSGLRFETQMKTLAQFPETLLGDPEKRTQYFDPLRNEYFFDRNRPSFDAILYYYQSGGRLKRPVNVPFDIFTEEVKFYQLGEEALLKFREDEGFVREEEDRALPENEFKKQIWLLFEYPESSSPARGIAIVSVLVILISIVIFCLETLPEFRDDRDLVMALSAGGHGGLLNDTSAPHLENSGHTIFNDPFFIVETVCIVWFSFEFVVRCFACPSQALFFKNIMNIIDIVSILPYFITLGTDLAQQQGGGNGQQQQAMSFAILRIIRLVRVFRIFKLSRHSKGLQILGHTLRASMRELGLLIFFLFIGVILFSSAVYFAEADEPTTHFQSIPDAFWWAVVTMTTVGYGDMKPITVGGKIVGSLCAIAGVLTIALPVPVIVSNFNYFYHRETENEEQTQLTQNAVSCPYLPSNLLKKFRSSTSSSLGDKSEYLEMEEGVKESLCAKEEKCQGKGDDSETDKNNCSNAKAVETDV
Chain of KV4.2 (Q9NZV8 whole entry): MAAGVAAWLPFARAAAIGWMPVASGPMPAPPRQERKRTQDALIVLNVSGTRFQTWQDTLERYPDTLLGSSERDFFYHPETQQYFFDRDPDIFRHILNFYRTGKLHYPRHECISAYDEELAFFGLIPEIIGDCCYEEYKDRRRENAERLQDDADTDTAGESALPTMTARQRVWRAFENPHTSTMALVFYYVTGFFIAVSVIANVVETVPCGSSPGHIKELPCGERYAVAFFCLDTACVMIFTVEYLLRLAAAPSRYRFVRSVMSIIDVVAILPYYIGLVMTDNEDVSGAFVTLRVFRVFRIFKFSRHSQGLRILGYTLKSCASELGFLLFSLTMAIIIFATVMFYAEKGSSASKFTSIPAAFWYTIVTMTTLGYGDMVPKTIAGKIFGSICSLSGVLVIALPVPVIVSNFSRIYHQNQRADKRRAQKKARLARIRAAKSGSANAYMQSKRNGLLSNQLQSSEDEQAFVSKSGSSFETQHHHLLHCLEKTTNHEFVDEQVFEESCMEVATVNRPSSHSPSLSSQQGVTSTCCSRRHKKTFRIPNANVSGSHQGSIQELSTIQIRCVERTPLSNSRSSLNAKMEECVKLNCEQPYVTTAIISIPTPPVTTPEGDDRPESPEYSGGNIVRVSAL
Chain of KV10.1 (O95259 whole entry): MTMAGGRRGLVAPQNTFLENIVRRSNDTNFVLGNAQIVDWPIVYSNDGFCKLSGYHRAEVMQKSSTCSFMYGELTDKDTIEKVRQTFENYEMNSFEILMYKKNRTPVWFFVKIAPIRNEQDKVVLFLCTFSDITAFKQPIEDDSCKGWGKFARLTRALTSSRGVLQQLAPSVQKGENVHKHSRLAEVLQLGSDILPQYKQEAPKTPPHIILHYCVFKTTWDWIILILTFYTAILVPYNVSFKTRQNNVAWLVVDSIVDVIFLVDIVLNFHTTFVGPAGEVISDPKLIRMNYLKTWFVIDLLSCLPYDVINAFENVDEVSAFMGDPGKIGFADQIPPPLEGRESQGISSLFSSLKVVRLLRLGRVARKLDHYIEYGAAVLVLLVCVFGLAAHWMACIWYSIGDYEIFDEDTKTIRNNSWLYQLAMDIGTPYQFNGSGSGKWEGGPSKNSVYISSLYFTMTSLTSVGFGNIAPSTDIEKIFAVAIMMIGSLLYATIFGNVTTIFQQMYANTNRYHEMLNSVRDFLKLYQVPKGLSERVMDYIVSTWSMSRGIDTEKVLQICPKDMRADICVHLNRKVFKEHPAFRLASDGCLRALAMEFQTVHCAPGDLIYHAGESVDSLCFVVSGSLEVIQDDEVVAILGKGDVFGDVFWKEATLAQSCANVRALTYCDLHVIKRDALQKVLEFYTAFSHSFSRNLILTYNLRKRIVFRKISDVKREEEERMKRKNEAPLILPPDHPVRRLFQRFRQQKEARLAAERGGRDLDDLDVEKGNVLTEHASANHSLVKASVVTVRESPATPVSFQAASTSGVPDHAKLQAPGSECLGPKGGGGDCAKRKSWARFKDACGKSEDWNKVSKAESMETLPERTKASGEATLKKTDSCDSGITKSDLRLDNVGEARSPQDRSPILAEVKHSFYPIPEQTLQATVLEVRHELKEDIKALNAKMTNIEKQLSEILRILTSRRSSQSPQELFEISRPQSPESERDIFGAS

Row | IC50 (KV2.1; [1]) [µM] | IC50 (KV4.2) [nM] | IC50 (KV1.4; [1]) [µM] | inhibition of KV1.4 (KV1.4; [2]) [%] | Effect on KV2.1 channel (KV2.1; [2]) | Effect on KV10.1 channel (KV10.1) | SMILES
1 | 6.45 ± 0.42 | 2410 ± 880 | – | – | – | – | COc1ccccc1C(=O)NCC1(c2cccs2)CCOC1 (stereo not drawn) [Compound 14]
2 | – | – | 8.48 ± 2.21 | ~16 | no significant effects | no significant effects | COc1ccccc1C(=O)NCC1(c2ccsc2)CCOCC1 [Compound 44]
